Source: US10618918B2, “Substituted boronic acids as antimicrobials” (priority 2015, dated 2020)
Where two headings read alike, the source gives them in different places.

Assays:
KP1004 KPC-2 [1] = test: Biapenem potentiation (MPC@1), strain KP1004 KPC-2; format: cell-based; conditions: minimum BLI concentration inhibiting growth with biapenem 1 μg/mL; tested up to 40 μg/mL
Method: (§1) Biapenem was present in the test medium at 1 μg/mL. […] Table 3 summarizes the BLI potency of biapenem potentiation (MPC@1) for two strains overexpressing class A (KPC) and class D (OXA-48) carbapenemases. Biapenem MIC for each strain is also shown.

KP1086 OXA-48 = test: Biapenem potentiation (MPC@1), strain KP1086 OXA-48; format: cell-based; conditions: minimum BLI concentration inhibiting growth with biapenem 1 μg/mL; tested up to 40 μg/mL
Method: as §1

AB1053 OXA-72 = test: Meropenem potentiation (MPC@8), strain AB1053 OXA-72; format: cell-based, Acinetobacter baumannii; conditions: minimum BLI concentration inhibiting growth with meropenem 8 μg/mL; tested up to 20 μg/mL
AB1054 OXA-23 = test: Meropenem potentiation (MPC@8), strain AB1054 OXA-23; format: cell-based, Acinetobacter baumannii; conditions: minimum BLI concentration inhibiting growth with meropenem 8 μg/mL; tested up to 20 μg/mL
[2] = biological target: T1, purified class A, C and D enzymes (β-lactamases) (Acinetobacter baumannii, UniProt Q9L4P2); test: biochemical; format: biochemical; conditions: purified OXA-23; nitrocefin (NCF) as reporter substrate
T1 construct: rows headed: Ki (OXA-23, NCF), uM; other: purified OXA-23; nitrocefin (NCF) as reporter substrate
T1 sequence (Q9L4P2 whole entry): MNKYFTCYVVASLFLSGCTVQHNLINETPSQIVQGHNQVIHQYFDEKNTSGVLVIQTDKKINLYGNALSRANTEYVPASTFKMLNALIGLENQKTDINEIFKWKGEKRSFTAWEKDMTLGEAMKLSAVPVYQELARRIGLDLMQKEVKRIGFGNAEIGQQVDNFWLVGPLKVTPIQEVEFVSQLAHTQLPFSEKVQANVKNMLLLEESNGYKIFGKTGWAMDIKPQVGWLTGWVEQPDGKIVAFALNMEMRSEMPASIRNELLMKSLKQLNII

[3] = biological target: purified class A, C and D enzymes (β-lactamases) (Enterobacter cloacae, UniProt P05364); test: biochemical; format: biochemical
Chain of purified class A, C and D enzymes (β-lactamases) (Enterobacter cloacae, UniProt P05364) (P05364 21-381): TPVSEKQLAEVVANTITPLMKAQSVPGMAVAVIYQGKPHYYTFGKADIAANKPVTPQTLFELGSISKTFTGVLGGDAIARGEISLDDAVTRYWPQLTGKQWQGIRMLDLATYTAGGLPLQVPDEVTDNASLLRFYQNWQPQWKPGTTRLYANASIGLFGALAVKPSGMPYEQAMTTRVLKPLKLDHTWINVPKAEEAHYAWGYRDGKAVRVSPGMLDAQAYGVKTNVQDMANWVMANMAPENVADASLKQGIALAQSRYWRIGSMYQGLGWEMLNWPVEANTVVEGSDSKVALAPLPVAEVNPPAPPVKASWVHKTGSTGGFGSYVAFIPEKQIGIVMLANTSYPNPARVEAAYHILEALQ

[4] = biological target: purified class A, C and D enzymes (β-lactamases) (Escherichia coli, UniProt Q9L5C7); test: biochemical; format: biochemical; conditions: purified CTX-M-14; nitrocefin (NCF) as reporter substrate
Chain of purified class A, C and D enzymes (β-lactamases) (Escherichia coli, UniProt Q9L5C7) (Q9L5C7 entry or part of it): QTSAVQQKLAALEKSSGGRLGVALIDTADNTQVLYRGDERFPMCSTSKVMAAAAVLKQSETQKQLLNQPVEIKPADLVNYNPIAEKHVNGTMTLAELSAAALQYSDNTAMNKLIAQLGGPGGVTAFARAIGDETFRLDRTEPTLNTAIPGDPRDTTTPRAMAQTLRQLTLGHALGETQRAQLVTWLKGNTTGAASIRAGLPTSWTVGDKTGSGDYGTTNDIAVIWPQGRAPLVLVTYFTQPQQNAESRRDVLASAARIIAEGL

[5] = biological target: purified class A, C and D enzymes (β-lactamases) (Klebsiella pneumoniae, UniProt Q6XEC0); test: biochemical; format: biochemical; conditions: purified OXA-48; nitrocefin (NCF) as reporter substrate
[6] = biological target: purified class A, C and D enzymes (β-lactamases) (Klebsiella pneumoniae, UniProt Q9F663); test: biochemical; format: biochemical; conditions: purified KPC-2; nitrocefin (NCF) as reporter substrate
[7] = biological target: T2, purified class A, C and D enzymes (β-lactamases) (Pseudomonas aeruginosa, UniProt P24735); test: biochemical; format: biochemical
T2 construct: rows headed: Ki (Pa-AmpC, NCF), uM; other: purified Pa-AmpC; nitrocefin (NCF) as reporter substrate
T2 sequence (P24735 whole entry): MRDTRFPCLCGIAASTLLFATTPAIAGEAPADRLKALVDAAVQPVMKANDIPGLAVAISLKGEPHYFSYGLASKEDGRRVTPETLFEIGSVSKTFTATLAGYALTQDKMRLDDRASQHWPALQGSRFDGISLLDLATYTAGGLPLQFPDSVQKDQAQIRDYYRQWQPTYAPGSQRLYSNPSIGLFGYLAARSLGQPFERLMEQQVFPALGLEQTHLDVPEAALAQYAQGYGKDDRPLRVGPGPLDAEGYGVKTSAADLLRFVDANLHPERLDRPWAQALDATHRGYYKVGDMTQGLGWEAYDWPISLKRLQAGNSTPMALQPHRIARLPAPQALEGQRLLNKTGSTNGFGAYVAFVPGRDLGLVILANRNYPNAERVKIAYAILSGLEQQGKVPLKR

ECL1002 = test: Aztreonam potentiation (MPC@4), strain ECL1002; conditions: minimum BLI concentration inhibiting growth with aztreonam 4 μg/mL; tested up to 40 μg/mL
ec308 SHV-5 = test: Aztreonam potentiation (MPC@4), strain ec308 SHV-5; conditions: minimum BLI concentration inhibiting growth with aztreonam 4 μg/mL; tested up to 40 μg/mL
ec302 TEM-10 = test: Aztreonam potentiation (MPC@4), strain ec302 TEM-10; conditions: minimum BLI concentration inhibiting growth with aztreonam 4 μg/mL; tested up to 40 μg/mL
KP1004 KPC-2 [8] = test: Aztreonam potentiation (MPC@4), strain KP1004 KPC-2; conditions: minimum BLI concentration inhibiting growth with aztreonam 4 μg/mL; tested up to 40 μg/mL
EC1010 CMY-6 = test: Aztreonam potentiation (MPC@4), strain EC1010 CMY-6; conditions: minimum BLI concentration inhibiting growth with aztreonam 4 μg/mL; tested up to 40 μg/mL
KP1010 SHV-12 = test: Aztreonam potentiation (MPC@4), strain KP1010 SHV-12; conditions: minimum BLI concentration inhibiting growth with aztreonam 4 μg/mL; tested up to 40 μg/mL
KP1009 CTX-M-15 = test: Aztreonam potentiation (MPC@4), strain KP1009 CTX-M-15; conditions: minimum BLI concentration inhibiting growth with aztreonam 4 μg/mL; tested up to 40 μg/mL
KP1005 CTX-M-14 = test: Tigemonam potentiation (MPC@4), strain KP1005 CTX-M-14; conditions: minimum BLI concentration inhibiting growth with tigemonam 4 μg/mL; tested up to 40 μg/mL
[9] = purified P99, nitrocefin (NCF) as reporter substrate
[10] = purified Pa-AmpC, nitrocefin (NCF) as reporter substrate, read-out: Ki (Pa-AmpC, NCF)

Row | Compound | BPM MPC1 KP1004 KPC-2 (KP1004 KPC-2 [1]) | BPM MPC1 OXA-48 KP1086 (KP1086 OXA-48) | MPM MPC8 AB1053 OXA-72 (AB1053 OXA-72) | MPM MPC8 AB1054 OXA-23 (AB1054 OXA-23) | Ki [2] | Ki (P99, NCF), uM [3, 9] | Ki (CTX-M-14, NCF), uM [4] | Ki (OXA-48, NCF), uM [5] | Ki (KPC-2, NCF), uM [6] | Ki [7, 10] | AZT MPC4 ECL1002 (ECL1002) | AZT MPC4 SHV-5 ec308 (ec308 SHV-5) | AZT MPC4 TEM-10 ec302 (ec302 TEM-10) | AZT MPC4 KPC-2 KP1004 (KP1004 KPC-2 [8]) | AZT MPC4 CMY-6 EC1010 (EC1010 CMY-6) | AZT MPC4 SHV-12 KP1010 (KP1010 SHV-12) | AZT MPC4 CTX-M-15 KP1009 (KP1009 CTX-M-15) | TIG MPC4 CTX-M-14 KP1005 (KP1005 CTX-M-14) | Ki (P99, NCF), uM [3] | Ki [7]
1 | O=C(O)c1c(CNc2nncs2)ccc2c1OB(O)CC2 [Compound 64, 2-Hydroxy-7-[(1,3,4-thiadiazol-2-ylamino)methyl]-3,4-dihydro-1,2-benzoxaborinine-8-carboxylic acid] | X (X = MPC@1 ≤ 5 μg/mL) | Y (Y = 5 μg/mL < MPC@1 ≤ 20 μg/mL) | Y (Y = 5 μg/mL < MPC@1 ≤ 20 μg/mL) | Y (Y = 5 μg/mL < MPC@1 ≤ 20 μg/mL) | < 100 nM | X (X = Ki ≤ 0.1 μM) | X (X = Ki ≤ 0.1 μM) | X (X = Ki ≤ 0.1 μM) | X (X = Ki ≤ 0.1 μM) | < 100 nM | X (X = MPC@4 ≤ 5 μg/mL) | X (X = MPC@4 ≤ 5 μg/mL) | X (X = MPC@4 ≤ 5 μg/mL) | X (X = MPC@4 ≤ 5 μg/mL) | X (X = MPC@4 ≤ 5 μg/mL) | X (X = MPC@4 ≤ 5 μg/mL) | X (X = MPC@4 ≤ 5 μg/mL) | Y (Y = 5 μg/mL < MPC@4 ≤ 20 μg/mL) | – | –
2 | NC(=O)COc1ccc2c(c1C(=O)O)OB(O)CC2 [Compound 46, 7-(2-Amino-2-oxo-ethoxy)-2-hydroxy-3,4-dihydro-1,2-benzoxaborinine-8-carboxylic acid] | X (X = MPC@1 ≤ 5 μg/mL) | Y (Y = 5 μg/mL < MPC@1 ≤ 20 μg/mL) | X (X = MPC@1 ≤ 5 μg/mL) | Y (Y = 5 μg/mL < MPC@1 ≤ 20 μg/mL) | < 100 nM | X (X = Ki ≤ 0.1 μM) | X (X = Ki ≤ 0.1 μM) | X (X = Ki ≤ 0.1 μM) | X (X = Ki ≤ 0.1 μM) | < 100 nM | X (X = MPC@4 ≤ 5 μg/mL) | X (X = MPC@4 ≤ 5 μg/mL) | X (X = MPC@4 ≤ 5 μg/mL) | X (X = MPC@4 ≤ 5 μg/mL) | X (X = MPC@4 ≤ 5 μg/mL) | X (X = MPC@4 ≤ 5 μg/mL) | X (X = MPC@4 ≤ 5 μg/mL) | Z (Z = MPC@4 > 20 μg/mL) | – | –
3 | NS(=O)(=O)Nc1ccc2c(c1C(=O)[O-])O[B-](O)(O)CC2.[Na+].[Na+] [Compound 52, Disodium; 4,4-dihydroxy-8-(sulfamoylamino)-5-oxa-4-boranuidabicyclo[4.4.0]deca-1(6),7,9-triene-7-carboxylate] | X (X = MPC@1 ≤ 5 μg/mL) | X (X = MPC@1 ≤ 5 μg/mL) | Z (Z = MPC@1 > 20 μg/mL) | Z (Z = MPC@1 > 20 μg/mL) | 100 to 1000 nM | – | X (X = Ki ≤ 0.1 μM) | X (X = Ki ≤ 0.1 μM) | X (X = Ki ≤ 0.1 μM) | – | X (X = MPC@4 ≤ 5 μg/mL) | Y (Y = 5 μg/mL < MPC@4 ≤ 20 μg/mL) | Y (Y = 5 μg/mL < MPC@4 ≤ 20 μg/mL) | X (X = MPC@4 ≤ 5 μg/mL) | X (X = MPC@4 ≤ 5 μg/mL) | X (X = MPC@4 ≤ 5 μg/mL) | Y (Y = 5 μg/mL < MPC@4 ≤ 20 μg/mL) | Z (Z = MPC@4 > 20 μg/mL) | X (key: X = Ki ≤ 0.1 μM; Y = 0.1 μM < Ki ≤ 1 μM; Z = Ki > 1 μM) | < 100 nM
4 | NCCCSCc1ccc2c(c1C(=O)[O-])O[B-](O)(O)CC2.[Na+].[Na+] [Compound 21, Disodium; 8-(3-aminopropylsulfanylmethyl)-4,4-dihydroxy-5-oxa-4-boranuidabicyclo[4.4.0]deca-1(6),7,9-triene-7-carboxylate] | X (X = MPC@1 ≤ 5 μg/mL) | X (X = MPC@1 ≤ 5 μg/mL) | X (X = MPC@1 ≤ 5 μg/mL) | X (X = MPC@1 ≤ 5 μg/mL) | < 100 nM | – | X (X = Ki ≤ 0.1 μM) | X (X = Ki ≤ 0.1 μM) | X (X = Ki ≤ 0.1 μM) | – | Y (Y = 5 μg/mL < MPC@4 ≤ 20 μg/mL) | Y (Y = 5 μg/mL < MPC@4 ≤ 20 μg/mL) | Y (Y = 5 μg/mL < MPC@4 ≤ 20 μg/mL) | X (X = MPC@4 ≤ 5 μg/mL) | X (X = MPC@4 ≤ 5 μg/mL) | X (X = MPC@4 ≤ 5 μg/mL) | Y (Y = 5 μg/mL < MPC@4 ≤ 20 μg/mL) | Z (Z = MPC@4 > 20 μg/mL) | X (key: X = Ki ≤ 0.1 μM; Y = 0.1 μM < Ki ≤ 1 μM; Z = Ki > 1 μM) | < 100 nM
5 | CS(=O)(=O)c1ccc2c(c1C(=O)O)OB(O)CC2 [Compound 39, 2-Hydroxy-7-methylsulfonyl-3,4-dihydro-1,2-benzoxaborinine-8-carboxylic acid] | X (X = MPC@1 ≤ 5 μg/mL) | X (X = MPC@1 ≤ 5 μg/mL) | X (X = MPC@1 ≤ 5 μg/mL) | X (X = MPC@1 ≤ 5 μg/mL) | < 100 nM | X (X = Ki ≤ 0.1 μM) | X (X = Ki ≤ 0.1 μM) | X (X = Ki ≤ 0.1 μM) | X (X = Ki ≤ 0.1 μM) | < 100 nM | X (X = MPC@4 ≤ 5 μg/mL) | X (X = MPC@4 ≤ 5 μg/mL) | X (X = MPC@4 ≤ 5 μg/mL) | X (X = MPC@4 ≤ 5 μg/mL) | X (X = MPC@4 ≤ 5 μg/mL) | X (X = MPC@4 ≤ 5 μg/mL) | X (X = MPC@4 ≤ 5 μg/mL) | Y (Y = 5 μg/mL < MPC@4 ≤ 20 μg/mL) | – | –
6 | COc1ccc2c(c1C(=O)[O-])O[B-](O)(O)[C@@H](CCO)C2.[Na+].[Na+] [Compound 12, Disodium; (3R)-4,4-dihydroxy-3-(2-hydroxyethyl)-8-methoxy-5-oxa-4-boranuidabicyclo[4.4.0]deca-1(6),7,9-triene-7-carboxylate] | X (X = MPC@1 ≤ 5 μg/mL) | Y (Y = 5 μg/mL < MPC@1 ≤ 20 μg/mL) | Y (Y = 5 μg/mL < MPC@1 ≤ 20 μg/mL) | Y (Y = 5 μg/mL < MPC@1 ≤ 20 μg/mL) | 100 to 1000 nM | – | X (X = Ki ≤ 0.1 μM) | X (X = Ki ≤ 0.1 μM) | X (X = Ki ≤ 0.1 μM) | – | Y (Y = 5 μg/mL < MPC@4 ≤ 20 μg/mL) | Y (Y = 5 μg/mL < MPC@4 ≤ 20 μg/mL) | Z (Z = MPC@4 > 20 μg/mL) | Y (Y = 5 μg/mL < MPC@4 ≤ 20 μg/mL) | Y (Y = 5 μg/mL < MPC@4 ≤ 20 μg/mL) | Y (Y = 5 μg/mL < MPC@4 ≤ 20 μg/mL) | Y (Y = 5 μg/mL < MPC@4 ≤ 20 μg/mL) | Z (Z = MPC@4 > 20 μg/mL) | X (key: X = Ki ≤ 0.1 μM; Y = 0.1 μM < Ki ≤ 1 μM; Z = Ki > 1 μM) | 100 to 1000 nM
